The values below come from PubChem BioAssay (NCI).

Common to all, as to test: inhibition of tumour cell growth, NCI panel, 48 h
For assay [1], the system named is HCC-2998 colon.
Assay [2] relates to SK-OV-3 ovarian.
Assay [3] deals with SF-295 CNS.
For assay [4], the system named is U251 CNS.
Assay [5] deals with TK-10 renal.
Assay [6] has as its system SW-620 colon.
Assay [7] has as its system NCI-H522 lung.
Assay [8] deals with SF-539 CNS.

Where “and” joins values, the source holds several entries; their conditions need not be identical. Identical values can stand only once.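 Briefly, cells in 96-well plates were exposed to five compound concentrations for 48 h, and endpoints were estimated by linear interpolation. GI50 = concentration required for 50% inhibition of growth. The concentration for full growth arrest is given as TGI.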

Turning to `CC(=O)O[C@H]1C(=O)[C@@]2(C)C(C(OC(=O)c3ccccc3)[C@]3(O)CC(OC(=O)[C@H](OC(=O)CCC(=O)O)C(NC(=O)c4ccccc4)c4ccccc4)C(C)=C1C3(C)C)C1(OC(C)=O)COC1C[C@@H]2O` (some centres not stated), the TGI in assay [1] is > 100 µM and 20.3 µM; in assay [2], more than 100 µM; in assay [3], 2.27 µM; in assay [4], more than 100 µM; in assay [5], 97.1 µM and 15.4 µM; in assay [6] it was more than 100 µM. In addition, the TGI is less than 0.01 µM in assay [7]; < 0.0196 µM and 0.0584 µM in assay [8]. In addition, the GI50 in assay [2] is < 0.0159 µM and 0.0343 µM; in assay [3] it was 0.0471 µM and 0.18 µM.

With `Cc1ccc(NC(=O)CC(=O)n2nc(C)c(N=Nc3ccccc3C(=O)O)c2C)cc1`, the TGI in assay [1], in assay [2], in assay [3], in assay [4], in assay [5] and in assay [6] was more than 100 µM throughout. Further, the TGI in assay [7] and in assay [8] was more than 100 µM in each case.

Regarding `Nc1cccc(S(=O)(=O)NCC(=O)O)c1`, the TGI in assay [1], in assay [2], in assay [3], in assay [4], in assay [5] and in assay [6] was more than 100 µM throughout. Further, the TGI in assay [7] and in assay [8] was more than 100 µM throughout.

In the case of `CC/C=C\C[C@H](F)C/C=C1/C(=O)C=C[C@@H]1C/C=C\CCCC(=O)O`, the GI50 is 6.93 µM in assay [1]; 12.6 µM in assay [2]; 7.54 µM in assay [3]; 4.01 µM in assay [4]; 12.2 µM in assay [5]; 5.64 µM in assay [6]. Also, the GI50 in assay [7] was 4.58 µM; in assay [8], 7.21 µM. The TGI is 12.2 µM in assay [1]; more than 32.5 µM in assay [2]; 17.2 µM in assay [3]; 8.94 µM in assay [4]; 27.4 µM in assay [5]; 21.3 µM in assay [6]. Further, the values for the TGI in assay [7] and in assay [8] were 10.9 µM and 17 µM, respectively.

On to `Nc1c(-c2ccc(Cl)cc2)[n+]([O-])c2ccccc2[n+]1[O-]`, for which the TGI in assay [1], in assay [2], in assay [3], in assay [4], in assay [5] and in assay [6] was more than 100 µM each time. For the same compound, the TGI is 85.6 µM in assay [7] and more than 100 µM in assay [8].

Consider `COc1cc2cc(Oc3ccc(NC(=O)Nc4ccc(Cl)c(C(F)(F)F)c4)cc3)c(C)nc2cc1OCCN1CCOCC1`, for which the GI50 is 3.68 µM in assay [1]; 3.34 µM in assay [2]; 1.19 µM in assay [3]; 1.76 µM in assay [4]; 4.97 µM in assay [5]; 2.31 µM in assay [6]. The GI50 was 1.43 µM in assay [7] and 1.68 µM in assay [8]. Besides, the TGI in assay [1] was 11.1 µM; in assay [2], 17.5 µM; in assay [3], 2.85 µM; in assay [4], 3.89 µM; in assay [5], 35.2 µM; in assay [6] it was 5.52 µM. For the same compound, the TGI amounted to 4.07 µM in assay [7] and 3.26 µM in assay [8].

Take `O=C(N/C(=C\c1cccc([N+](=O)[O-])c1)c1nc2ccc([N+](=O)[O-])cc2[nH]1)c1ccccc1`: the TGI in assay [1], in assay [2], in assay [3], in assay [4], in assay [5] and in assay [6] was more than 100 µM throughout. The figures for the TGI in assay [7] and in assay [8] were 52.9 µM and more than 100 µM, respectively.

On to `COc1ccc2c(c1)C(=O)c1c-2n(CCCn2ccnc2)c(=O)c2cc([N+](=O)[O-])ccc12`, for which the GI50 in assay [1] was less than 0.0194 µM; in assay [2] it was less than 0.01 µM; in assay [3] it was less than 0.01 µM; in assay [4], less than 0.01 µM; in assay [5] it was 0.14 µM; in assay [6] it was less than 0.0111 µM. The GI50 in assay [7] was less than 0.0134 µM; in assay [8], less than 0.01 µM. Moreover, the TGI was 0.267 µM in assay [1]; 1.88 µM in assay [2]; 0.166 µM in assay [4]; more than 95.8 µM in assay [5]; more than 39.9 µM in assay [6]; 3.99 µM in assay [7]. The compound further had a TGI in assay [8] of 0.0101 µM.

On to `Nc1nccc(-c2c(-c3ccc(F)cc3)ncn2C2CCC(O)CC2)n1` (configuration not stated), for which the GI50 is 17.3 µM in assay [1]; 3.97 µM in assay [2]; 17.7 µM in assay [3]; 9.99 µM in assay [4]; 3.72 µM in assay [5]; 13.6 µM in assay [6]. Further, the GI50 in assay [7] was 5.49 µM; in assay [8], more than 23.2 µM. In addition, the TGI is more than 25 µM in assay [1]; 12.2 µM in assay [2]; more than 25 µM in assay [3]; more than 25 µM in assay [4]; 24.4 µM in assay [5]; more than 25 µM in assay [6]. For the same compound, the TGI in assay [7] is more than 23.1 µM; in assay [8], more than 25 µM.

Take `Cc1ccc2c(c1)Sc1c(ccc3ccccc13)N2`: the GI50 was 98.7 µM in assay [1]; more than 100 µM in assay [2]; 15.4 µM in assay [3]; 9.31 µM in assay [4]; 12.8 µM in assay [5]; more than 100 µM in assay [6]. The GI50 in assay [7] is more than 100 µM; in assay [8], 20.7 µM. The TGI in assay [1], in assay [2], in assay [3], in assay [4], in assay [5] and in assay [6] was more than 100 µM in each case. In addition, the TGI in assay [7] and in assay [8] was more than 100 µM throughout.

As for `N#C/C(=C\c1ccc2ccccc2c1)c1ccccc1`, the TGI in assay [1] is 87.9 µM; in assay [2], 70.7 µM; in assay [3] it was 50.4 µM; in assay [4], 57.1 µM; in assay [5], 75.7 µM; in assay [6], more than 100 µM. In addition, the TGI in assay [7] worked out at 29.6 µM; in assay [8] it was 36.8 µM.

Take `O=C(O)/C=C(\c1nc2ccc([N+](=O)[O-])cc2[nH]1)c1cc(Cl)ccc1O`: the GI50 was 4.13 µM in assay [1]; 2.44 µM in assay [2]; 3.43 µM in assay [3]; 3.21 µM in assay [4]; 4.11 µM in assay [5]; 3.66 µM in assay [6]. Moreover, the GI50 was 1.17 µM in assay [7] and 3.1 µM in assay [8]. Also, the TGI in assay [1] worked out at 29.4 µM; in assay [2], 11.8 µM; in assay [3], 20.1 µM; in assay [4] it was 19.2 µM; in assay [5], 15.4 µM; in assay [6] it was 17.6 µM. The TGI in assay [7] amounted to 5.03 µM; in assay [8], 17.8 µM.

For the compound `CCCC(=O)OCC1OC(n2cnc3c(=S)nc[nH]c32)C(OC(=O)CCC)C1OC(=O)CCC` (configuration not stated), the GI50 in assay [1] was 2.92 µM; in assay [2], 0.804 µM; in assay [3], 3.53 µM; in assay [4], 62 µM; in assay [5] it was 2.78 µM; in assay [6], 4.59 µM. In addition, the GI50 was 4.62 µM in assay [7] and 3.53 µM in assay [8]. Further, the TGI in assay [1] is more than 100 µM; in assay [2] it was 69.8 µM; in assay [3] it was more than 100 µM; in assay [4] it was more than 100 µM; in assay [5], more than 100 µM; in assay [6] it was more than 100 µM. Further, the TGI in assay [7] and in assay [8] was more than 100 µM in each case.

Regarding `CCC[CH2][Sn]1([CH2]CCC)[O]C(=O)CN=Cc2c(ccc3ccccc23)[O]1`, the GI50 was 0.777 µM in assay [1]; 1.11 µM in assay [2]; 0.794 µM in assay [3]; 0.351 µM in assay [4]; 0.293 µM in assay [5]; 0.184 µM in assay [6]. Further, the GI50 was 0.0605 µM in assay [7] and 1.51 µM in assay [8]. Besides, the TGI in assay [1] stood at 2.02 µM; in assay [2], 2.31 µM; in assay [3], 2.08 µM; in assay [4], 1.2 µM; in assay [5], 0.743 µM; in assay [6], 0.417 µM. Further, the TGI is 0.198 µM in assay [7] and more than 100 µM in assay [8].
